Key:
Assay in all cases: standardised AUC of viability dose-response curve (72 h) (fraction (0-1)); higher = less growth inhibition (more resistant)
A204 = test system: A204
Outline: (§1)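 Viability of sarcoma cell lines was read with ATPLite after 72 h of triplicate treatment in 384-well plates with 2.5 µl of compound from a compound-plate series of 10 mM to 0.0002 mM. Viability was scaled 1 (full) to 0 (none) and fitted with a four-parameter log-logistic model for each drug and cell line. The reported standardised area under the dose-response curve in log-dose space comes from a modified drexplorer computeAUC, where 1 is no response and 0 is full response.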

G401 = test system: G401
Outline: as §1

HS729 = test system: HS729
Outline: as §1

HT1080 = test system: HT1080
Outline: as §1

KHOS-240S = test system: KHOS-240S
Outline: as §1

KHOS-NP = test system: KHOS-NP
Outline: as §1

MES-SA = test system: MES-SA
Outline: as §1

RD-ES = test system: RD-ES
Outline: as §1

RD = test system: RD
Outline: as §1

SK-ES-1 = test system: SK-ES-1
Outline: as §1

SK-LMS-1 = test system: SK-LMS-1
Outline: as §1

SW1353 = test system: SW1353
Outline: as §1

SW684 = test system: SW684
Outline: as §1

SW872 = test system: SW872
Outline: as §1

SW982 = test system: SW982
Outline: as §1

SYO-1 = test system: SYO-1
Outline: as §1

VA-ES-BJ = test system: VA-ES-BJ
Outline: as §1

Structure (SMILES) | standardised AUC (A204) | standardised AUC (G401) | standardised AUC (HS729) | standardised AUC (HT1080) | standardised AUC (KHOS-240S) | standardised AUC (KHOS-NP) | standardised AUC (MES-SA) | standardised AUC (RD-ES) | standardised AUC (RD) | standardised AUC (SK-ES-1) | standardised AUC (SK-LMS-1) | standardised AUC (SW1353) | standardised AUC (SW684) | standardised AUC (SW872) | standardised AUC (SW982) | standardised AUC (SYO-1) | standardised AUC (VA-ES-BJ)
CC(C)NC(=O)C1CCC(n2c(NC(=O)c3ccc(F)cc3)nc3ccc(CN4CCC(C(C)(C)O)CC4)cc32)CC1 (centres undefined) [BELIZATINIB] | 0.922 | 0.829 | 0.838 | 0.952 | 0.844 | 0.973 | 0.901 | 0.791 | 0.788 | 0.749 | 0.926 | 0.897 | 0.925 | 0.82 | 0.762 | 0.827 | 0.835
O=C(Nc1cnn2ccc(N3CCC[C@@H]3c3cc(F)ccc3F)nc12)N1CC[C@H](O)C1 [LAROTRECTINIB] | 0.992 | 0.98 | 0.886 | 0.996 | 0.988 | 0.969 | 0.982 | 0.994 | 0.995 | 0.982 | 0.961 | 0.936 | 0.985 | 0.953 | 0.996 | 0.92 | 0.969
CC(=O)Nc1cccc(-n2c(=O)n(C3CC3)c(=O)c3c(Nc4ccc(I)cc4F)n(C)c(=O)c(C)c32)c1 [TRAMETINIB] | 0.782 | 0.651 | 0.761 | 0.577 | 0.783 | 0.523 | 0.827 | 0.989 | 0.65 | 0.958 | 0.533 | 0.709 | 0.714 | 0.619 | 0.897 | 0.825 | 0.756
Cn1cc(-c2cc3c(N4CCN(c5ncc([C@@](C)(N)c6ccc(F)cc6)cn5)CC4)ncnn3c2)cn1 [AVAPRITINIB] | 0.727 | 0.913 | 0.941 | 0.971 | 0.927 | 0.917 | 0.937 | 0.956 | 0.978 | 0.953 | 0.954 | 0.927 | 0.977 | 0.946 | 0.948 | 0.745 | 0.972
Cc1ccc(F)c(NC(=O)Nc2ccc(-c3cccc4[nH]nc(N)c34)cc2)c1 [LINIFANIB] | 0.74 | 0.948 | 0.884 | 0.994 | 0.983 | 0.955 | 0.973 | 0.994 | 1 | 0.964 | 1 | 0.993 | 0.996 | 0.972 | 1 | 0.879 | 1
COCc1c(-c2cc3cc(C)cc(OC)c3s2)c2c(N)ncnn2c1CN1CCNC(=O)C1 [ROGARATINIB] | 0.755 | 0.807 | 0.776 | 0.999 | 0.854 | 0.987 | 0.85 | 0.934 | 0.958 | 0.907 | 0.952 | 0.851 | 0.974 | 0.943 | 0.93 | 0.751 | 0.962
CO[C@H]1C[C@@H]2CC[C@@H](C)[C@@](O)(O2)C(=O)C(=O)N2CCCC[C@H]2C(=O)O[C@H]([C@H](C)C[C@@H]2CC[C@@H](OP(C)(C)=O)[C@H](OC)C2)CC(=O)[C@H](C)/C=C(\C)[C@@H](O)[C@@H](OC)C(=O)[C@H](C)C[C@H](C)/C=C/C=C/C=C/1C [RIDAFOROLIMUS] | 0.643 | 0.832 | 0.937 | 0.925 | 0.867 | 0.97 | 0.542 | 0.764 | 0.748 | 0.682 | 0.645 | 0.796 | 0.798 | 0.686 | 0.729 | 0.874 | 0.587
CN[C@@H]1C[C@H]2O[C@@](C)([C@@H]1OC)n1c3ccccc3c3c4c(c5c6ccccc6n2c5c31)C(=O)NC4 [STAUROSPORINE] | 0.309 | 0.331 | 0.409 | 0.313 | 0.284 | 0.369 | 0.435 | 0.435 | 0.343 | 0.398 | 0.376 | 0.294 | 0.427 | 0.337 | 0.25 | 0.288 | 0.346
CC(C)(C)c1cc(NC(=O)Nc2ccc(-c3cn4c(n3)sc3cc(OCCN5CCOCC5)ccc34)cc2)no1 [QUIZARTINIB] | 0.745 | 0.958 | 0.939 | 0.964 | 0.954 | 0.964 | 0.93 | 0.989 | 0.977 | 0.924 | 0.94 | 0.978 | 0.966 | 0.986 | 0.992 | 0.879 | 0.976
C[C@@H]1CCN(C(=O)CC#N)C[C@@H]1N(C)c1ncnc2[nH]ccc12 [TOFACITINIB] | 0.972 | 0.994 | 0.876 | 0.982 | 0.976 | 0.982 | 0.989 | 1 | 1 | 0.989 | 0.978 | 0.942 | 0.967 | 0.932 | 0.993 | 0.925 | 0.958
Nc1cc(C(F)(F)F)c(-c2cc(N3CCOCC3)nc(N3CCOCC3)n2)cn1 [BUPARLISIB] | 0.754 | 0.823 | 0.815 | 0.862 | 0.829 | 0.887 | 0.753 | 0.769 | 0.785 | 0.742 | 0.75 | 0.85 | 0.823 | 0.809 | 0.79 | 0.791 | 0.762
Cc1cc(Nc2ncnc3ccc(NC4=NC(C)(C)CO4)cc23)ccc1Oc1ccn2ncnc2c1 [TUCATINIB] | 0.966 | 0.979 | 0.928 | 0.988 | 0.983 | 0.989 | 0.946 | 0.978 | 1 | 0.974 | 0.985 | 0.915 | 0.976 | 0.981 | 0.984 | 0.97 | 0.951
C[C@@H](c1ccc2nccn2c1)n1nnc2ncc(-c3cnn(C)c3)nc21 [VOLITINIB] | 0.974 | 0.992 | 0.998 | 0.982 | 1 | 0.981 | 0.994 | 0.993 | 0.988 | 0.996 | 0.725 | 0.991 | 0.986 | 0.992 | 0.993 | 0.998 | 0.883
Cc1ccc(NC(=O)c2ccc(CN3CCN(C)CC3)cc2)cc1Nc1nc(-c2cccnc2)cs1 [MASITINIB] | 0.702 | 0.848 | 0.884 | 0.902 | 0.853 | 0.89 | 0.869 | 0.871 | 0.902 | 0.881 | 0.907 | 0.857 | 0.873 | 0.874 | 0.876 | 0.749 | 0.897
C=CC(=O)N1CCC([C@@H]2CCNc3c(C(N)=O)c(-c4ccc(Oc5ccccc5)cc4)nn32)CC1 [ZANUBRUTINIB] | 0.957 | 0.977 | 0.964 | 0.987 | 0.976 | 1 | 0.981 | 0.974 | 0.966 | 0.977 | 1 | 0.934 | 0.97 | 0.941 | 0.941 | 0.974 | 0.973
Cn1cnc2c(F)c(Nc3ccc(Br)cc3F)c(C(=O)NOCCO)cc21 [BINIMETINIB] | 0.936 | 0.869 | 0.887 | 0.756 | 0.89 | 0.773 | 0.905 | 0.978 | 0.736 | 0.933 | 0.727 | 0.838 | 0.917 | 0.741 | 0.89 | 0.922 | 0.895
CCN1CCN(Cc2ccc(Nc3ncc(F)c(-c4cc(F)c5nc(C)n(C(C)C)c5c4)n3)nc2)CC1 [ABEMACICLIB] | 0.746 | 0.855 | 0.966 | 0.993 | 0.856 | 0.95 | 0.805 | 0.734 | 0.97 | 0.631 | 0.938 | 0.88 | 0.901 | 0.872 | 0.734 | 0.715 | 0.804

From the supplement of paper PMC10883282
